Experimental data reported in paper PMC10767396 (Advanced Science, 2023).

Legend:
[1] = system: 46 CNS‐related targets; set-up: method as in PMID 36213537; settings: cited from earlier work
[2] = system: BV2 cells; experiment: Western blot of PB118-treated BV2 cell lysates; type: cell-based, murine; settings: PB118 500 and 1000 nM, 6 h
Protocol: The previously described WB method was implemented to perform and analyze western blot membrane.^[ [34] ^] […] Proteins were separated by the electrophoresis using the 4–12% Bis‐Tris SDS‐PAGE Gel System (Invitrogen, Thermo Fisher Scientific), followed by membrane transfer to PVDF membranes (Invitrogen, Thermo Fischer scientific). Next, the membranes were blocked for 30 min with the Superblock (Thermo Scientific) and then incubated overnight with primary antibodies following the dilutions mentioned below. The membranes were then washed with TBST (four times) and incubated with appropriate secondary antibodies (1:10 000 dilution) at room temperature for 2 h. Then, membranes were incubated with Supersignal West Femto (Life Technologies), and the images for immunoreactivity were developed and visualized by the LICOR Odyssey Fc. Quantifications of proteins of interest were performed by Image J software.

[3] = set-up: method as in PMID 36213537; settings: cited from earlier work
[4] = system: BV2 cells; experiment: Microglial Aβ phagocytosis, MSD Aβ peptide panel 1 (4G8); type: cell-based, murine; settings: Aβ42 2 µg/mL + PB118 500 and 1000 nM, 6 h, vs control
Protocol: (§1) Briefly, for microglia‐related amyloid (Aβ) phagocytosis study, BV2 cells were seeded in a 6‐well confocal dish (400k cells mL^−1) and cultured overnight for ≈90% confluency. […] Then, media were collected to perform the LDH assay for cell cytotoxicity assessment. Cells were washed carefully with PBS (2x) and lysed by adding 200 µL of MPER++ (10 mL MPER with 1% protease cocktail inhibitor and 1% EDTA) in each well. Cell lysates were collected in 1.5 mL Eppendorf tube and centrifuged at 12 000 rpm at 4 °C for 15 min and supernatants were collected for further studies. Total protein was quantified using the BCA protein assay kit (Pierce). Briefly, BV2 cells were cultured following previously published methods and grew in DMEM media containing 10% heat‐inactivated fetal bovine serum, 2 mM L‐Glutamine, and 1% penicillin/streptomycin (Life Technologies). […] Subsequently, media were collected and applied to LDH to assess cell viability; cells were extensively washed with PBS and were lysed in MPER lysis buffer (MPER++) supplemented with EDTA‐free protease inhibitors (Roche), Halt phosphatase inhibitor cocktail (Thermo Fisher Scientific). Lysates were centrifuged as before (12 000 rpm at 4 °C for 15 min) and supernatants were collected for further analysis. […]

[5] = system: HDAC1; settings: read-out: IC50 for HDAC1; enzyme inhibition assay; cited from earlier work
[6] = biological target: HDAC6 enzyme; settings: read-out: IC50 for HDAC6; enzyme inhibition assay; cited from earlier work
[7] = system: LPS induced BV2 cells; experiment: Multiplex MSD-cytokine assay in LPS-induced BV2 cells; type: cell-based, murine; settings: LPS 10 ng/mL + PB118 500/1000 nM, 24 h, media
Protocol: Briefly, for microglia‐related amyloid (Aβ) phagocytosis study, BV2 cells were seeded in a 6‐well confocal dish (400k cells mL^−1) and cultured overnight for ≈90% confluency. […] Then, media were collected to perform the LDH assay for cell cytotoxicity assessment. Cells were washed carefully with PBS (2x) and lysed by adding 200 µL of MPER++ (10 mL MPER with 1% protease cocktail inhibitor and 1% EDTA) in each well. Cell lysates were collected in 1.5 mL Eppendorf tube and centrifuged at 12 000 rpm at 4 °C for 15 min and supernatants were collected for further studies. Total protein was quantified using the BCA protein assay kit (Pierce). Briefly, BV2 cells were cultured following previously published methods and grew in DMEM media containing 10% heat‐inactivated fetal bovine serum, 2 mM L‐Glutamine, and 1% penicillin/streptomycin (Life Technologies). […] Subsequently, media were collected and applied to LDH to assess cell viability; cells were extensively washed with PBS and were lysed in MPER lysis buffer (MPER++) supplemented with EDTA‐free protease inhibitors (Roche), Halt phosphatase inhibitor cocktail (Thermo Fisher Scientific). Lysates were centrifuged as before (12 000 rpm at 4 °C for 15 min) and supernatants were collected for further analysis.
(§2) MSD immunoassays are quite robust and based on combining multiarray technology and electrochemiluminescence to identify numerous proteins in a single sample.

[8] = system: human microglia HMC3 cells; experiment: LDH assay and stereomicroscopy in HMC3 cells; type: cell-based; settings: PB118 500 and 1000 nM, 6 h
Protocol: The previously reported CytoTox‐ONE assay was performed to analyze cell viability by measuring the release of lactate dehydrogenase (LDH) following the manufacturer's guidelines (Promega; Madison, WI). Briefly, 50 µL of cell culture media was utilized and a 1:1 dilution of substrate was added. […] Under the influence of the assay's substrate, resazurin was converted to resorufin, its fluorescent form, owing to LDH. The fluorometric results were used to compare the experiment group to the control group to assess the cytotoxicity of treated compounds.

[9] = set-up: method as in PMID 36213537; settings: C57BL/6 mice, i.p. 1 mg kg^-1, blood and brain at 30 min, 1 and 4 h; cited from earlier work
[10] = Stability in human serum (HPLC); type: in vitro ADME; settings: 37 °C
[11] = set-up: method as in PMID 36213537; settings: human liver microsomes; cited from earlier work
[12] = system: 3D human neural stem cell model of AD (ReNcell VM); experiment: LDH assay in 3D human neural culture; type: cell-based; settings: PB118 1 or 5 µM, 3 weeks
Protocol: Human precursor ReN cells were used to prepare 3D AD environment following previous work.^[ [30] ^] Briefly, for 3D layers of cells, BD Matrigel stock solution (BD Biosciences) was diluted with ReN cell differentiation medium (in 1:15 dilution) (chilled) followed by vertexing with the cell pellets for 20 s. A final cell concentration of ≈2 × 10^6 cells mL^−1 was used and this cell/ Matrigel mixtures were immediately transferred ([…] in each) into an Optilux clear bottom 96‐well plates (BD Biosciences). A thin layer ([…]) of 3D gels was formed at the bottom of the plates after incubating the plates at 37 °C for 1 h and the media were changed. For differentiation before drug treatment, 3D‐plated cells were cultured for 6 weeks, and the media were changed every 3–4 days. […] The cells were harvested for extraction using a lysis buffer mixture (Lysis 6 buffer with protease inhibitor; 1:100), followed by shaking for 1 h at cold room and centrifugation at 2 k rpm for 30 min. Supernatants were collected and further analyzed by MSD immunoassay kit and western blot analysis. The previously reported CytoTox‐ONE assay was performed to analyze cell viability by measuring the release of lactate dehydrogenase (LDH) following the manufacturer's guidelines (Promega; Madison, WI). Briefly, 50 µL of cell culture media was utilized and a 1:1 dilution of substrate was added. […]

[13] = system: BV2 cells; experiment: Cold depolymerization assay; type: cell-based, murine; settings: PB118 500 nM 24 h, on ice 10 and 20 min in comparison to 0 min
Protocol: To perform this assay, BV2 cells were seeded and cultured in an 8‐well Labtek chamber slide for overnight (100 k well^−1). […] Then cells were incubated on ice to induce microtubule depolymerization and were fixed using 4% PFA at different time points (0, 10, and 20 min). After that, cells were washed with PBS three times and blocked with blocking buffer (5% Donkey serum with 0.1% Triton‐X‐100 in PBS) and immunostaining was performed with these fixed cells against α‐tubulin (green) and acetylated α‐tubulin (red) antibodies. Appropriate secondary antibodies were used for visualization of these cells and images were captured in a Nikon C2 confocal microscopy.

[14] = system: BV2 cells; experiment: Immunocytochemistry (ICC) in BV2 cells; type: cell-based, murine
Protocol: ICC was performed following previously published articles.^[ [36] ^] Briefly, BV2 cells were seeded and grown overnight in a LabTek 8‐well chamber wells having ≈100 k cells well^−1. […] Discarded the media after 3 h, washed each well carefully with 150–300 µL of PBS (2x), and fixed with 4% PFA for 20 min at r.t. After that, washed each well again with 150–300 µL of PBS (2x) at r.t and incubated with blocking buffer (5% Donkey serum with 0.1% Triton‐X‐100 in PBS). Aspirate the blocking buffer and add 150 µL of primary antibody in each well and keep it at 4 °C for overnight shaking. Washed with washing buffer (PBS containing 0.1% Triton‐X‐100, 0.05% Tween‐20) twice and incubated with specific secondary antibody in each of the wells with gently shaking for 2 h at r.t. Discarded secondary solution and washed with washing buffer twice and incubated 10 min with 2 nM of Hoechst solution for another 10 min at r.t, washed with PBS (two times) and finally mounted with Prolong Gold antifade reagent, dried at r.t, and covered with a cover slip. Microscopic images were captured with these slides to understand the activity of HDAC6 toward tubulin/microtubule.

[15] = system: BV2 cells; experiment: LDH cytotoxicity assay in BV2 cells; type: cell-based, murine
Protocol: as §1

[16] = system: BV2 cells; experiment: Stereomicroscopic images of BV2 cell morphology; type: cell-based, murine
Text: Stereomicroscopic images were captured before and after the treatment of different concentrations of PB118 on BV2 cells to elucidate the cytotoxicity based on the cellular morphology of BV2 cells by using Invitrogen EVOS XL Core stereo microscope.

[17] = system: 3D human neural stem cell model of AD (ReNcell VM); experiment: MSD phospho (Thr231)/total tau and Aβ (6E10) assay in 3D-AD culture; type: cell-based; settings: 3 weeks
Protocol: Human precursor ReN cells were used to prepare 3D AD environment following previous work.^[ [30] ^] Briefly, for 3D layers of cells, BD Matrigel stock solution (BD Biosciences) was diluted with ReN cell differentiation medium (in 1:15 dilution) (chilled) followed by vertexing with the cell pellets for 20 s. A final cell concentration of ≈2 × 10^6 cells mL^−1 was used and this cell/ Matrigel mixtures were immediately transferred ([…] in each) into an Optilux clear bottom 96‐well plates (BD Biosciences). A thin layer ([…]) of 3D gels was formed at the bottom of the plates after incubating the plates at 37 °C for 1 h and the media were changed. For differentiation before drug treatment, 3D‐plated cells were cultured for 6 weeks, and the media were changed every 3–4 days. […] The cells were harvested for extraction using a lysis buffer mixture (Lysis 6 buffer with protease inhibitor; 1:100), followed by shaking for 1 h at cold room and centrifugation at 2 k rpm for 30 min. Supernatants were collected and further analyzed by MSD immunoassay kit and western blot analysis.
as §2

[18] = higher concentration of PB118 (1 or 5 µM tested)

O=C(NO)c1ccc(CN2CCCCc3ccccc32)c(F)c1 [PB118]
off-target binding profile [1]: good off‐target binding profile
HDAC6 expression (WB, normalized to β-actin) [2]: non‐significant change
Ac-α-tubulin protein level (WB, normalized to α-tubulin) ([2]; vs control): significant increase
binding with human plasma [3]: 99.4%
Aβ42 levels in cell lysates (phagocytosis) [4]: significant increase
IC50 [5]: 7.82 µM
IC50 [6]: 0.0056 µM
IL-12p-70 level [7]: significant reductions
KC/GRO (CXCL1) level [7]: significant reductions
interleukin-6 (IL-6) level [7]: significant reductions
morphology and cytotoxicity (stereomicroscopy, LDH assay) [8]: no detrimental change in morphology or cytotoxicity
BBB crossing (brain/plasma study) [9]: BBB crossing ability
decay constant in human serum [10]: 6.3e-06 s⁻¹
mean lifetime in human serum [10]: 43.6 h
compound remaining in human serum ([10]; after 24 h, HPLC): ≈ 57%
half-life (t1/2) in human serum ([10]; calculated by formula of Figure S2b): 30.2 h
half-life at 5 mM ([10]; human, calculated by formula of Figure S2b, read-out: half-life (t1/2) in human serum (converted)): ~30.2 h
half-life in human microsomal liver [11]: 1.13 h
cytotoxicity (LDH assay) [12]: no cytotoxicity
acetylated α-tubulin protein expression in cold depolymerization condition [13]: significantly higher
HDAC6 expression (ICC) ([14]; LPS 10 ng/mL + PB118 500 nM): lack of significant change
α-tubulin network (ICC) ([14]; LPS 10 ng/mL + PB118 500 nM): lack of significant change
acetylated tubulin levels (ICC) with or without LPS ([14]; PB118 500 nM with or without LPS 10 ng/mL): no change
acetyl α-tubulin expression (ICC) ([14]; PB118 500 nM, 3 h, vs vehicle): higher compared to vehicle
cell viability (LDH assay) ([15]; LPS 10 ng/mL +/- PB118 500 or 1000 nM, 24 h, treated vs control): No significant difference
cytotoxicity (LDH assay) ([15]; PB118 500 and 1000 nM with or without Aβ42 (2 µg/mL), 6 h): no significant cytotoxicity
cell morphology (stereomicroscopic images) ([16]; LPS +/- PB118, 24 h): no significant difference of cell morphology
cell morphology (microscopic images before and after treatment) ([16]; PB118 with or without Aβ42, 6 h): no significant change in cell morphology
Aβ42 generation ([17]; PB118 1 or 5 µM): significantly reduced
p-tau (Thr231) level [17, 18]: significantly reduced
total tau level [17, 18]: significantly reduced
